The values below are quoted from earlier work in patent US20160235660A1, “COSMETIC COMPOSITION AND USE THEREOF” (EMS S.A., priority 2015, published 2016).

This data set has as its system facial melasma. The following applies: hydroquinone 4% vs 0.75% kojic acid cream.

On to `Oc1ccc(O)cc1` [hydroquinone, 1,4-dihydroxybenzene], for which the “action in the treatment of melasma compared with kojic acid” value was “superiority”.
